# From US10611750B2, “Tetrahydroquinoline compositions as bet bromodomain inhibitors” (FORMA Therapeutics, Inc., priority 2013, dated 2020)
# Legend:
# [1] = tested on: acute myelocytic leukemia (AML) cell line MV4-11; experiment: Oncology cell growth assay (3-day proliferation, CellTiter-Glo); type: cell-based; conditions: Homo sapiens, MV4-11, 72 h, MV4-11 cells, 3000 cells/well, compounds listed under IC50 range headings, read-out: MV411 IC50 (gIC50, inhibition of proliferation)
# Procedure, shortened: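 MV4-11 AML cells (RPMI 1640, 10% FBS) plated at 3000 cells/well and exposed 72 h to compound at final 10 to 0.0045 μM (3-fold series). Viability read by CellTiter-Glo luminescence; gIC50 from four-parameter logistic fit between DMSO control and no-cell background.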
# [2] = biological target: T1, BRD4 Bromodomain 1 (BRD4 BD1) (Homo sapiens, UniProt O60885); experiment: AlphaScreen binding assay, BRD4 BD1; conditions: His-tagged BRD4 BD1 50 nM, biotinylated H4 (1-21) K5/8/12/16 tetra-acetylated peptide 50 nM, compounds listed under IC50 range headings
# T1 construct: 44-168 and BRD4 BD2
# Procedure, shortened: (§1)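 An AlphaScreen competition format was used with His-BRD4 BD1 or BD2 and biotin-H4 K5/8/12/16-acetyl peptide, each at matched final levels of 50 nM (BD1) or 100 nM (BD2). Incubation in HEPES/NaCl buffer with 0.1% BSA and 0.01% Triton X-100 ran ≥1 h before IC50 determination.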
# [3] = biological target: T2, BRD4 Bromodomain 2 (BRD4 BD2) (Homo sapiens, UniProt O60885); experiment: AlphaScreen binding assay, BRD4 BD2; conditions: His-tagged BRD4 BD2 100 nM, biotinylated H4 (1-21) K5/8/12/16 tetra-acetylated peptide 100 nM, compounds listed under IC50 range headings
# T2 construct: 333-460 were cloned, expressed, and purified to homogeneity
# Procedure, shortened: as §1
Compound,IC50 [1] [nM],IC50 [2] [nM],IC50 [3] [nM]
"COC(=O)N1c2ccc(-c3cnn(C4CC4)c3)c(O[C@@H](F)C(N)=O)c2CC[C@@H]1C [I-20, (S)-methyl 5-((S)-2-amino-1-fluoro-2-oxoethoxy)-6-(1-cyclopropyl-1H-pyrazol-4-yl)-2-methyl-3,4-dihydroquinoline-1(2H)-carboxylate]",> 1000,≥ 10000,≥ 500
COC(=O)N1c2ccc(-c3cnn(CCO)c3)c(OCC3CCCC3)c2CC[C@@H]1C [I-461],500 to 1000,100 to 1000,< 50
"CCN1CC(Oc2c(-c3cnn(C4CC4)c3)ccc3c2CC[C@H](C)N3C(=O)OC)C1 [I-251, (S)-methyl 6-(1-cyclopropyl-1H-pyrazol-4-yl)-5-(1-ethylazetidin-3-yloxy)-2-methyl-3,4-dihydroquinoline-1(2H)-carboxylate]",> 1000,1000 to 10000,50 to 500
"COC(=O)N1c2ccc(-c3cnn(C4CCCS(=O)(=O)C4)c3)c(OC3CCC3)c2CC[C@@H]1C (stereo partly drawn) [I-62, Methyl (2S)-5-cyclobutoxy-6-(1-(1,1-dioxidotetrahydro-2H-thiopyran-3-yl)-1H-pyrazol-4-yl)-2-methyl-3,4-dihydroquinoline-1(2H)-carboxylate]",< 500,100 to 1000,< 50
CC(=O)N1c2ccc(-c3cnn(C4CC4)c3)c(OCC3CCCCC3)c2CC[C@@H]1C [I-402],500 to 1000,100 to 1000,50 to 500
"COC(=O)N1c2ccc(-c3cnn(C4CN(C)C4)c3)c(OC3CCC3)c2CC[C@@H]1C [I-284, Methyl (S)-5-cyclobutoxy-2-methyl-6-(1-(1-methylazetidin-3-yl)-1H-pyrazol-4-yl)-3,4-dihydroquinoline-1(2H)-carboxylate]",500 to 1000,1000 to 10000,50 to 500
"C[C@H]1CCc2c(ccc(-c3ccn[nH]3)c2Oc2ccccc2)N1C(=O)C1CC1 [I-218, (S)-cyclopropyl(2-methyl-5-phenoxy-6-(1H-pyrazol-5-yl)-3,4-dihydroquinolin-1(2H)-yl)methanone]",< 500,1000 to 10000,< 50
CC(=O)N1c2ccc(-c3ccc4c(c3)CCN4S(C)(=O)=O)c(OCC(=O)N(C)C)c2CC[C@@H]1C [I-501],> 1000,1000 to 10000,50 to 500
COC(=O)N1c2ccc(-c3cnn(CCS(C)(=O)=O)c3)c(Oc3ncccc3C#N)c2CC[C@@H]1C [I-566],> 1000,1000 to 10000,50 to 500
CC1CCc2c(ccc(-c3cnn(C4CC4)c3)c2Oc2ccccc2)N1C(=O)C1CC1 (stereo not drawn) [I-598],< 500,100 to 1000,50 to 500
COC(=O)c1ccc(Oc2c(-c3cnn(C4CCNCC4)c3)ccc3c2CC[C@H](C)N3C(=O)OC)nc1 [I-537],500 to 1000,1000 to 10000,50 to 500
CC(=O)N1c2ccc(-c3cnn(CCO)c3)c(Oc3ncc(C(C)C)cn3)c2CC[C@@H]1C [I-545],< 500,100 to 1000,< 50
"CC(=O)N1c2ccc(-c3cnn(C4CC4)c3)c(Oc3ccccc3Cl)c2CC[C@@H]1C [I-211, (S)-1-(5-(2-chlorophenoxy)-6-(1-cyclopropyl-1H-pyrazol-4-yl)-2-methyl-3,4-dihydroquinolin-1(2H)-yl)ethanone]",< 500,100 to 1000,< 50
"CC(=O)N1c2ccc(-c3cnn(C4CC4)c3)c(OCCN3CCCC3=O)c2CC[C@@H]1C [I-42, (S)-1-(2-(1-acetyl-6-(1-cyclopropyl-1H-pyrazol-4-yl)-2-methyl-1,2,3,4-tetrahydroquinolin-5-yloxy)ethyl)pyrrolidin-2-one]",> 1000,100 to 1000,50 to 500
COC(=O)N1c2ccc(-c3cnn(C4CCNCC4)c3)c(Oc3cc(C4CC4)ncn3)c2CC[C@@H]1C [I-531],< 500,1000 to 10000,50 to 500

# The next lines start with the values.
IC50 [1] [nM],IC50 [2] [nM],IC50 [3] [nM],Compound
< 500,100 to 1000,< 50,CC(=O)N1c2ccc(-c3cnn(CCS(C)(=O)=O)c3)c(Oc3ncc(F)cn3)c2CC[C@@H]1C [I-550]
< 500,1000 to 10000,< 50,"CC(=O)N1c2ccc(-c3cnn(C4CC4)c3)c(Oc3nccc4ccccc34)c2CC[C@@H]1C [I-257, (S)-1-(6-(1-cyclopropyl-1H-pyrazol-4-yl)-5-(isoquinolin-1-yloxy)-2-methyl-3,4-dihydroquinolin-1(2H)-yl)ethanone]"
< 500,< 100,< 50,CC(=O)N1c2ccc(-c3cnn(C4CCNCC4)c3)c(OCC(C)C)c2CC[C@@H]1C [I-423]
< 500,100 to 1000,< 50,"COC(=O)N1c2ccc(-c3cnn(C4CCN(C)CC4)c3)c(Oc3ccc(F)cc3)c2CC[C@@H]1C [I-283, Methyl (S)-5-(4-fluorophenoxy)-2-methyl-6-(1-(1-methylpiperidin-4-yl)-1H-pyrazol-4-yl)-3,4-dihydroquinoline-1(2H)-carboxylate]"
< 500,100 to 1000,< 50,"CC(=O)N1c2ccc(-c3cnn(C4CCNCC4)c3)c(Oc3ccccc3C#N)c2CC[C@@H]1C [I-136, (S)-2-(1-acetyl-2-methyl-6-(1-(piperidin-4-yl)-1H-pyrazol-4-yl)-1,2,3,4-tetrahydroquinolin-5-yloxy)benzonitrile]"
< 500,100 to 1000,< 50,CC(=O)N1c2ccc(-c3cnn(CCO)c3)c(Oc3ncc(C4CC4)cn3)c2CC[C@@H]1C [I-547]
< 500,100 to 1000,< 50,"COC(=O)N1c2ccc(-c3cnn(C4CCNCC4)c3)c(Oc3ccc(F)cc3)c2CC[C@@H]1C [I-158, (S)-methyl 5-(4-fluorophenoxy)-2-methyl-6-(1-(piperidin-4-yl)-1H-pyrazol-4-yl)-3,4-dihydroquinoline-1(2H)-carboxylate]"
< 500,1000 to 10000,< 50,"C/C=C/n1c(Oc2c(-c3cnn(C4CC4)c3)ccc3c2CC[C@H](C)N3C(C)=O)nc2ccccc21 [I-351, (S,E)-1-(6-(1-cyclopropyl-1H-pyrazol-4-yl)-2-methyl-5-(1-(prop-1-enyl)-1H-benzo[d]imidazol-2-yloxy)-3,4-dihydroquinolin-1(2H)-yl)ethanone]"
< 500,< 100,< 50,CC(=O)N1c2ccc(-c3cnn(CCO)c3)c(OCC3CCCC3)c2CC[C@@H]1C [I-426]
< 500,100 to 1000,< 50,"COC(=O)N1c2ccc(-c3cnn(C4CCNCC4)c3)c(Oc3cccc(Cl)c3C#N)c2CC[C@@H]1C [I-149, (S)-methyl 5-(3-chloro-2-cyanophenoxy)-2-methyl-6-(1-(piperidin-4-yl)-1H-pyrazol-4-yl)-3,4-dihydroquinoline-1(2H)-carboxylate]"
< 500,100 to 1000,50 to 500,"CC(=O)N1c2ccc(-c3cnn(C4CC4)c3)c(OCC(=O)N3CCCCC3)c2CC[C@@H]1C [I-8, (S)-2-(1-acetyl-6-(1-cyclopropyl-1H-pyrazol-4-yl)-2-methyl-1,2,3,4-tetrahydroquinolin-5-yloxy)-1-(piperidin-1-yl)ethanone]"
